# In patent US8765730B2 (Hoffmann-La Roche Inc, priority 2010, dated 2014):
# Target: T1, human GPBAR1 receptor (Homo sapiens, UniProt Q8TDU6)
# T1 construct: expressed in transfected cells
# T1 sequence (Q8TDU6 1-330): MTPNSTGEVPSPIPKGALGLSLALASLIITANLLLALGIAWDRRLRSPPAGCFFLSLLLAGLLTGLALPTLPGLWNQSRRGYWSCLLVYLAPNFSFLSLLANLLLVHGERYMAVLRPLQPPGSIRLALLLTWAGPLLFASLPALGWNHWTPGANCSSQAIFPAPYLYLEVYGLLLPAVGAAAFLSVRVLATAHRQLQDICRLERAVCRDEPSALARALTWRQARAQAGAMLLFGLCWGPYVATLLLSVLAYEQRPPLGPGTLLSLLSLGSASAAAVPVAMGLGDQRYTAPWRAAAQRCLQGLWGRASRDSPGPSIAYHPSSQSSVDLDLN
# Experiment: functional cAMP assay in CHO-dhfr(minus) cells expressing human GPBAR1 receptors
# Assay type: cell-based
# Conditions: human EC50, functional cAMP assay, 30 min at 30° C.
# Procedure: The final clone was verified by DNA sequence analysis. The plasmid was transfected into CHO cells deficient in dihydrofolate reductase activity (CHO-dhfr−) using Lipofectamine plus (Invitrogen). Clones were isolated in limited dilution conditions and identified by activities in the cAMP assay using lithocholic acid as agonist.
# The growth medium was exchanged with Krebs Ringer Bicarbonate buffer with 1 mM IBMX and incubated at 30° C. for 30 min. Compounds were added to a final assay volume of 100 μl and incubated for 30 min at 30° C. […] The time-resolved energy transfer is measured by a TRF reader (Evotec Technologies GmbH, Hamburg Germany), equipped with a ND:YAG laser as excitation source.
# EC50 values were determined using Activity Base analysis (ID Business Solution, Limited). […] Specificity for GPBAR1 was tested in non-transfected CHO cells in the same assay as above.
row,EC50 [nM],SMILES
1,648,"Cc1cc(/C(C[C@@H](c2ccc(C(=O)O)cc2)c2ccc(Cl)cc2C)=N/O)ccn1 [Example 282, 4-[(S)-1-(4-Chloro-2-methyl-phenyl)-3-[(E)-hydroxyimino]-3-(2-methyl-pyridin-4-yl)-propyl]-benzoic acid]"
2,17,"Cc1cc(/C(CC(c2ccc(-c3ccc(C(=O)O)cc3)cc2)c2ccc(Cl)cc2C)=N/O)ccn1 (stereo not shown) [Example 139, (E)-4′-(1-(4-chloro-2-methylphenyl)-3-(hydroxyimino)-3-(2-methylpyridin-4-yl)propyl)biphenyl-4-carboxylic acid]"
3,26,"Cc1cc(/C(C[C@H](c2ccc(S(C)(=O)=O)cc2)c2ccc(Cl)cc2C)=N/O)ccn1 [Example 359, (R)-3-(4-Chloro-2-methyl-phenyl)-3-(4-methanesulfonyl-phenyl)-1-(2-methyl-pyridin-4-yl)-propan-1-one oxime]"
4,84,"Cn1cc(/C(CC(c2ccc(S(C)(=O)=O)cc2)c2ccc(Cl)cc2F)=N/O)ccc1=O (stereo not shown) [Example 314, (E)-5-(3-(4-chloro-2-fluorophenyl)-1-(hydroxyimino)-3-(4-(methylsulfonyl)phenyl)propyl)-1-methylpyridin-2(1H)-one]"
5,7,"Cc1ccccc1[C@H](C/C(=N\O)c1ccc(=O)n(C)c1)c1ccc(C#N)cc1 [Example 498, (R,E)-4-(3-(Hydroxyimino)-3-(1-methyl-6-oxo-1,6-dihydropyridin-3-yl)-1-o-tolylpropyl)benzonitrile]"
6,2910,"Cc1ccccc1C(CC(=NO)c1cc(Cl)ccc1Cl)c1ccc(Br)cc1 (racemic) [Example 49, 3-(4-Bromo-phenyl)-1-(2,5-dichloro-phenyl)-3-o-tolyl-propan-1-one oxime]"
7,59,"Cc1cc(/C(C[C@H](c2ccc(C(=O)N[C@H]3CC[C@H](C(=O)O)CC3)cc2)c2ccccc2C)=N/O)ccn1 [Example 276, Trans-4-{4-[(R)-3-[(E)-Hydroxyimino]-3-(2-methyl-pyridin-4-yl)-1-o-tolyl-propyl]-benzoylamino}-cyclohexanecarboxylic acid]"
8,181,"Cc1ccccc1C(CC(=NO)c1ccncc1)c1cccc(-c2cccc(S(C)(=O)=O)c2)c1 (racemic) [Example 30, 3-(3′-Methanesulfonyl-biphenyl-3-yl)-1-pyridin-4-yl-3-o-tolyl-propan-1-one oxime]"
9,18,"Cc1cc(Cl)ccc1C(C/C(=N\O)c1ccc(=O)n(C)c1)c1ccc(-c2ccc(C(=O)NCc3nnn[nH]3)cc2)cc1 (stereo not shown) [Example 230, (E)-N-((1H-tetrazol-5-yl)methyl)-4′-(1-(4-chloro-2-methylphenyl)-3-(hydroxyimino)-3-(1-methyl-6-oxo-1,6-dihydropyridin-3-yl)propyl)biphenyl-4-carboxamide]"
10,33,"Cc1cc(/C(C[C@H](c2ccc(C3CCN(S(C)(=O)=O)CC3)cc2)c2ccc(Cl)cc2C)=N/O)ccn1 [Example 389, (R,E)-3-(4-Chloro-2-methylphenyl)-1-(2-methylpyridin-4-yl)-3-(4-(1-(methylsulfonyl)-piperidin-4-yl)phenyl)propan-1-one oxime]"
11,49,"Cc1cc(C(=O)O)ccc1-c1ccc(C(C/C(=N\O)c2ccc(=O)n(C)c2)c2ccc(Cl)cc2Cl)cc1 (racemic) [Example 476, 4′-[1-(2,4-Dichloro-phenyl)-3-[(E)-hydroxyimino]-3-(1-methyl-6-oxo-1,6-dihydro-pyridin-3-yl)-propyl]-2-methyl-biphenyl-4-carboxylic acid]"
12,19,"Cc1ccccc1C(C/C(=N\O)c1ccc(=O)n(C)c1)c1ccc(Br)cc1F (stereo not shown) [Example 193, 5-{3-(4-Bromo-2-fluoro-phenyl)-1-[(E)-hydroxyimino]-3-o-tolyl-propyl}-1-methyl-1H-pyridin-2-one]"
13,5,"Cc1cc(/C(CC(c2ccc(Br)cc2)c2ncccc2C)=N/O)ccn1 (stereo not shown) [Example 116, (E)-3-(4-Bromo-phenyl)-3-(3-methyl-pyridin-2-yl)-1-(2-methyl-pyridin-4-yl)-propan-1-one oxime]"
